# What was measured:
# Ixodes ricinus = assay: Glass capillary feeding of partly fed female ticks, Ixodes ricinus; format: in vivo; conditions: for Fluid intake, Median (mg): females, glass capillary
# Description: (§1) I. ricinus adults were prefed for 3-4 days and A. hebraeum adults for 10 days on a membrane over bovine blood (Kröber T. and Guerin P. M., 2007, supra). Partly fed I. ricinus and A. hebraeum, freshly detached from the membrane, were tightly fixed by the scutum and alloscutum to double-sided adhesive tape (Tesafix® 4964, Beiersdorf, Hamburg, Germany) on a glass slide and secured with plasticine. Test compounds were fed to these partly-fed female ticks using borosilicate capillary tubes (Clark GC120-10, 0.69 mm i.d., 1.2 mm o.d., 50 mm long; Clark Electromedical Instruments, Pangbourne, Reading, UK) with drawn out tips adapted to fit around the mouthparts of individual ticks. Feeding capillaries were filled with a solution of 100 mM NaCl, 8.9 mM NaHCO3 with 1000 μM ATP added, hereafter termed tick feeding solution (TFS) that served as positive control in each feeding experiment. PR antagonists were added to the TFS and pH of the solution was adjusted to 7.2-7.8. Capillary-fed ticks were kept in a plastic box on a warm plate at 34° C. and 80% RH using wet paper. After 1 h, the amount of solution imbibed by a tick was indicated by the drop of the meniscus in the capillary and measured using Vernier callipers and converted to mg.
# Uptake of TFS containing PR antagonists, converted to mg/h for hard ticks and weight gains in mg/25 min for soft ticks, was compared to TFS uptake in the corresponding positive controls. […] For tsetse and horn flies the percentage flies that fed per antagonist treatment served as the criterion for inhibition of feeding. As horn fly sexes emerged within 24 h, both sexes were assumed to show the same degree of appetence. In tsetse, males emerged first so a gender-related appetence could not be excluded. No sex-related feeding differences in feeding were found for testse (GLM, P>0.05) so data for the sexes were pooled. Comparisons of percentage fed flies were made using a Bayesian GLM—the most appropriate model considering the zero-inflated distributions shown by the data sets. […]
# [1] = target: Vertebrate P2X3 and P2X2/3 PRs; conditions: cited from earlier work
# Amblyomma hebraeum = assay: Glass capillary feeding of partly fed female ticks, Amblyomma hebraeum; format: in vivo; conditions: females
# Description: as §1, with “mg. […]” for “mg.”
# [2] = test system: A. gambiae labellum sensilla (purine-sensitive cell); assay: Tip recording of action potentials from A. gambiae labellum sensilla in response to agonists; format: cell-based, Anopheles gambiae
# Description: The tip recording method was used to record action potentials (spikes) from sensory cells in sensilla on A. gambiae labellum lobes.
# Sensilla were exposed to test compounds and PR antagonists for ca. 2-4 s and spikes were counted in the first 2 s of recordings. Up to 4 test compounds were tested on a sensillum to evaluate potential agonists, each presented at 200 pM. To study responses as a function of dose for agonists ATP, adenosine, AMP, AMP-CPP and ATP+adenosine, up to 7 recordings were made at increasing doses of agonist from the same sensillum. Unless otherwise stated, recordings were made throughout from 4 to 16 sensilla from individual 4-6-day-old females per dose of agonist, antagonist and metal ion modulator. For example, a response curve established over 6 doses of an antagonist using 8 sensilla per dose involved recording from a sensillum of 48 separate mosquitoes. A given dose of a PR antagonist or metal ion modulator was only presented once to a sensillum. Two-second recordings were imported as ASCII files into DataView software for analysis of spike amplitude. Differences in spike amplitude generated by stimulation of one 8v sensillum/female with 1 mM sucrose (n=294 spikes from 6 females) 200 pM adenosine (n=207 spikes from 7 females) and 200 pM ATP (n=192 spikes from 7 females) were compared by measuring the spike amplitude in mV between the highest point of depolarisation and the lowest point of hyperpolarisation.
# Spike counts elicited by 200 pM doses of nucleotides, nucleosides, purines, pyrimidines and water were log(x+1.25)-transformed (optimal constant numerically established using a maximum likelihood procedure) and analysed using a linear mixed effects model (function ‘lme’ in “nlme” R package) with mosquito number as random effect. To model inhomogeneous variance in residuals (near normal distribution, P=0.045, Shapiro-Wilk test, W=0.98604), the variance function ‘varldent’ in the “nlme” package that allows for different variance per treatment was used. Statistical differences were identified between treatments using post-hoc-Tukey test with contrasts adjusted by Holm's family wise error compensation (FWEC). Spike counts elicited by ATP, AMP, adenosine and their binary mixtures were analysed using a generalised linear model (LM) of log (x+10) transformed data and differences were identified using post-hoc-Tukey test with Holm's FWEC.
# Log transformed spike amplitudes generated in response to ATP, adenosine and sucrose were compared using linear mixed effects models using the ‘lme’ function of the “nlme” R package, with spike amplitude as the dependent variable, treatment as the fixed factor and mosquito number within treatment as random effect. Residuals were normally distributed (Shapiro-Wilk test P>0.0563) and their variances homogeneous (Bartlett test P>0.9799); P-values were corrected using Holm's FWEC.
# Dose-response models fitted to mosquito data were generated using the ‘drm’ command in the “drc” R package (version 2.5-12). Best fitting models (goodness of fit) and effects of dose of a compound were assessed using, respectively, ‘modelFit’ and ‘noEffect’ functions in the same R package. A 3-parameter logistic model (L3) was fitted to spike-counts recorded to increasing doses of adenosine, AMP, ATP and AMP-CPP. Spike numbers recorded in response to 200 pM ATP with increasing doses of PR antagonists added were analysed using a 4-parameter log-logistic model (LL.4) for A-317491 and spinorphin, using a 4-parameter Weibull model (W1.4) for PPADS, RB-2 and TMP, and using a 3-parameter log-logistic model (LL.3) for suramin. An L3 model was fitted to proportions of females feeding on increasing doses of ATP. Feeding rates on 20 μM ATP with increasing doses of a PR antagonist added were analysed using a 4-parameter log-logistic model (LL.4) with the median of the positive control (20 μM ATP) fixed as the upper asymptote. […]
# [3] = spike frequency as a function of dose
compound,measurement,setting,value
"O=C(O)c1cc(C(=O)O)c(C(=O)N(Cc2cccc(Oc3ccccc3)c2)[C@H]2CCCc3ccccc32)cc1C(=O)O [A-317491, 5-[(3-phenoxyphenyl)methyl-[(1S)-1,2,3,4-tetrahydronaphthalen-1-yl]carbamoyl]benzene-1,2,4-tricarboxylic acid]","Fluid intake, Median (mg)",Ixodes ricinus; TFS + 1 μM,1.5 mg/h
same,"effect on feeding on solution containing ATP, in words",Ixodes ricinus; doses as in Table 9,inhibited feeding
same,Kd,"[1]; Jarvis et al., 2002",0.9 nM
same,"Fluid intake, Median (mg)",Amblyomma hebraeum; TFS + 1 μM,6.7 mg/h
"Nc1ncnc2c1ncn2[C@@H]1O[C@H](COP(=O)(O)OP(=O)(O)OP(=O)(O)O)[C@@H](O)[C@H]1O [ATP, Adenosine 5′-triphosphate]",spike frequency,"[2]; 50 pM alone, mixture 50 pM of each agonist",2.5±0.7 /2s
same,EC50,"[2]; Anopheles gambiae, spike frequency as a function of dose, read-out: ED50 (the source's name)",~0.12 nM
same,spikes recorded at the asymptote,[2]; at 250 pM,approximately 30 spikes/2 s
same,Mean spike frequency per 2 s (±SEM),"[2]; each compound at 200 pM alone and in binary mixtures, T1 labellum sensilla",33.04 per 2 s
same,detection threshold,[2]; labellum sensory cell,< 100 pM
same,ED95,[2]; [3],~0.2 nM
same,dose at which the unsurmountable asymptote is reached,[2]; [3],250 pM
same,affinity,[1],< 1 nM
Cc1ccc(C(=O)Nc2ccc(S(=O)(=O)O)c3cc(S(=O)(=O)O)cc(S(=O)(=O)O)c23)cc1NC(=O)c1cccc(NC(=O)Nc2cccc(C(=O)Nc3cc(C(=O)Nc4ccc(S(=O)(=O)O)c5cc(S(=O)(=O)O)cc(S(=O)(=O)O)c45)ccc3C)c2)c1 [Suramin],"Fluid intake, Median (mg)",Ixodes ricinus; TFS + 500 μM,1.9 mg/h
same,"Fluid intake, Median (mg)",Amblyomma hebraeum; TFS + 500 μM,4.5 mg/h

# — patent US20250057791A1, “PROTECTION AGAINST ARTHROPOD PARASITES WITH PURINERGIC RECEPTOR (OPR) ANTAGONISTS” (priority 2021, published 2025)
